molecular target: T1, Alpha-(1,3)-fucosyltransferase 10 (Homo sapiens) (UniProt Q6P4F1); test: (§1) Acceptor substrate specificity toward Fucosyltransferase for the galactosides of GlcNAc with beta 1,3 or beta 1,4-linkages
T1 sequence (whole entry): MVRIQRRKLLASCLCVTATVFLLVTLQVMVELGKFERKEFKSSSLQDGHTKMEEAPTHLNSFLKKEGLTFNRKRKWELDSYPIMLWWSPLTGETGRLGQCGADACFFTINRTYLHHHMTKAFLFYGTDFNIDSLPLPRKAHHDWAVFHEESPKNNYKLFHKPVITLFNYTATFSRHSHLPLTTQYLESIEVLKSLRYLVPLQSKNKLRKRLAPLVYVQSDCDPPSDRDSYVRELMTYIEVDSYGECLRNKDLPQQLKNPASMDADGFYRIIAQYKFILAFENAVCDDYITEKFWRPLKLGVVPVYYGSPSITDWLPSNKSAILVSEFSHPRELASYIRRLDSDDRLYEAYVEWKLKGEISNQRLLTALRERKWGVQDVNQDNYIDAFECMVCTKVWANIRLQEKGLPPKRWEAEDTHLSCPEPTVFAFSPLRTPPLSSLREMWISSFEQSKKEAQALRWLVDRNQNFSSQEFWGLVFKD

**Q.** With CC(=O)N[C@@H]1[C@H](OC[C@@H]2O[C@@H](O[C@H]3[C@H](O)[C@H](O)C(O)O[C@H]3CO)[C@@H](O)[C@@H](O)[C@H]2O)O[C@@H](CO)[C@@H](O)[C@@H]1O (stereo not given in full) as the compound, how does the Relative activity read?
**A.** 13

**Q.** How did the Relative activity turn out when CC(=O)N[C@H]1C(O)O[C@H](CO)[C@@H](O)[C@@H]1O (stereo not given in full) was run?
**A.** 3

**Q.** OC[C@H]1OC(O)[C@H](O)[C@@H](O)[C@@H]1O (stereo not given in full) was tested. Which Relative activity did it give?
**A.** 5

**Q.** For OC[C@H]1OC=C[C@@H](O)[C@@H]1O, which Relative activity is on record?
**A.** 7

**Q.** How did the Relative activity turn out when CC(=O)N[C@H]1C(O)O[C@H](CO)[C@H](O)[C@@H]1O (stereo not given in full) was run?
**A.** 4

**Q.** With CC(=O)N[C@H]1[C@@H](O[C@@H]2O[C@@H](CO)[C@H](O)[C@H](O)[C@@H]2O)[C@H](O)[C@H](CO)O[C@H]1O as the compound, how does the Relative activity read?
**A.** 580

**Q.** How did the Relative activity turn out when CC(=O)N[C@@H]1[C@H](O[C@H]2[C@H](O)[C@H](NC(C)=O)C(O)O[C@H]2CO)O[C@@H](CO)[C@@H](O)[C@@H]1O (stereo not given in full) was run?
**A.** 23

**Q.** With CC(=O)N[C@@H]1[C@@H](O)[C@H](O[C@@H]2O[C@H](CO)[C@H](O)[C@H](O)[C@H]2O)[C@@H](CO)O[C@H]1O as the compound, how does the Relative activity read?
**A.** 27

**Q.** How did the Relative activity turn out when OC[C@H]1OC=C[C@@H](O)[C@H]1O was run?
**A.** 2

**Q.** For OC[C@H]1S[C@H](O)[C@H](O)[C@@H](O)[C@@H]1O, which Relative activity is on record?
**A.** 7

**Q.** O=C[C@H](O)[C@@H](O)[C@@H](O)[C@H](O)CO was tested. Which Relative activity did it give?
**A.** 6

**Q.** Which Relative activity does the source give for CC(=O)N[C@H]1[C@H]([C@H](O)[C@H](O)CO)O[C@@](O[C@@H]2[C@H](O)[C@H](O[C@H]3[C@H](O)[C@H](NC(C)=O)C(O)O[C@H]3CO)O[C@@H](CO)[C@@H]2O)(C(=O)O)C[C@H]1O (stereo not given in full) here?
**A.** 60

**Q.** For OC[C@H]1NC[C@H](O)[C@@H](O)[C@@H]1O, which Relative activity is on record?
**A.** 5

**Q.** How did the Relative activity turn out when OC[C@@H]1OC(O)[C@@H](O)[C@H](O)[C@@H]1O (stereo not given in full) was run?
**A.** 7

**Q.** Which Relative activity does the source give for OC[C@@H]1O[C@@H](O[C@H]2[C@H](O)[C@H](O)[C@H](O)S[C@H]2CO)[C@@H](O)[C@@H](O)[C@H]1O here?
**A.** 310

**Q.** Which Relative activity does the source give for C=CCO[C@@H]1O[C@@H](CO)[C@@H](O)[C@H](O)[C@@H]1O here?
**A.** < 1

**Q.** For C[C@@H]1O[C@@H](O[C@@H]2[C@H](O[C@H]3[C@H](O)[C@H](O)[C@@H](O)O[C@H]3CO)O[C@@H](CO)[C@H](O)[C@@H]2O)[C@@H](O)[C@@H](O)[C@@H]1O, which Relative activity is on record?
**A.** 250

**Q.** With OC[C@@H]1OC(O)[C@@H](O)[C@H](O)[C@H]1O (stereo not given in full) as the compound, how does the Relative activity read?
**A.** 3

molecular target: Alpha-(1,3)-fucosyltransferase 10 (Homo sapiens) (UniProt Q6P4F1); test: as §1

**Q.** How did the Relative activity turn out when LACTOSE, ANHYDROUS was run?
**A.** 120

molecular target: T1, Alpha-(1,3)-fucosyltransferase 10 (Homo sapiens); test: Compound was evaluated for acceptor substrate specificity toward Fucosyltransferase for the galactosides of GlcNAc with beta 1,3 or beta 1,4-linkages when applied 2 uM of GDP-Fuc consumed per hr.

**Q.** Which Relative activity does the source give for CC(=O)N[C@@H]1[C@@H](O)[C@H](O[C@@H]2O[C@H](CO)[C@H](O)[C@H](O)[C@H]2O)[C@@H](CO)O[C@H]1O here?
**A.** 100

— ChEMBL document CHEMBL1152100, “Enzymatic synthesis of sialyl Lex and derivatives based on a recombinant fucosyltransferase” (Bioorg Med Chem Lett, 1991)
